# Data reported in patent USRE39708E1, “Estrogen receptor modulators” (Chiron Corporation, priority 1998, dated 2007).
# Tested on: MCF-7 cells
# Assay: MCF-7 cell proliferation assay (BrdU incorporation)
# Type: cell-based
# Details: MCF-7 proliferation, 24 hours, in the absence of estradiol or in the presence of 1 nM estradiol
# Method: MCF-7 cells are a common line of breast cancer cells used to determine in vitro estrogen receptor agonist/antagonist activity (MacGregor and Jordan 1998). The effect of a test compound on the proliferation of MCF-7 cells, as measured by the incorporation of 5-bromo-2′-deoxyuridine (“BrdU”) in a chemiluminescent assay format, can be used to determine the relative agonist/antagonist activity of the test compound. MCF-7 cells (ATCC HTB-22) are mainatined in log-phase culture. The cells are plated and incubated in phenol-free medium to avoid external sources of iS estrogenic stimulus (MacGregor and Jordan 1998). The test compound is added at varying concentrations to determine an IC50, for the compound. […]
# This assay determines the estrogen agonist/antagonist activity of a test compound by the effect of the test compound on the proliferation of MCF-7 cells as measured by the incorporation of 5-bromo-2′-deoxyuridine (“BrdU”) in a chemiluminescent assay format. […]
# The cells were cultured in the presence of test compounds for 24 hours at 37° C. and under a 5% CO2 atmosphere Cell proliferation was detected by measuring the level of BrdU incorporation into DNA. […] The plates were shaken for ten minutes at room temperature, and the resulting chemiluminescent signals were counted using a TRILUX scintillation counter.
row,SMILES,concentration at which activity was demonstrated
1,CCc1c(-c2ccc(O)cc2)nn(C2CCC2)c1-c1ccc(O)cc1 [4-[1-cyclobutyl-4-ethyl-5-(4-hydroxyphenyl)pyrazol-3-yl]phenol],less than one hundred
2,CCc1c(-c2ccc(O)cc2)nn(-c2ccccc2C(F)(F)F)c1-c1ccc(O)cc1 [4-{4-ethyl-5-(4-hydroxyphenyl)-1-[2-(trifluoromethyl)phenyl]pyrazol-3-yl}phenol],less than one hundred
